# Structures can show the parent of a compound that is named as a salt.
# Legend:
# [1] = test system: patients with schizophrenia, paranoid type
# [2] = test system: NMDA-induced currents in cultured rat hippocampus neurons (NMDA receptors); experiment: NMDA-induced current blocking, patch clamp, whole cell configuration; assay type: cell-based; conditions: for Effect on the blocking effect of MK-801 on NMDA-induced currents: preliminary application before MK-801
# Procedure: Experiments were carried out by the patch clamp method on freshly isolated neurons of a rat brain cortex or on cultured rat hippocampus neurons. Neurons for cultivation were obtained from the hippocampus of neonatal rats (1-2 days) by the method of trypsinization followed by pipetting. Cells suspended in culture medium were placed in 3 mL quantities into the wells of a 6-well planchette (Nunc) or into Petri dishes, in which glasses coated with poly-L-lysine had first been placed. The cell concentration as a rule was […]. The culture medium consisted of Eagle's minimum medium and a DME/F12 medium (1:1) supplemented with 10% calf serum, 2 mM glutamine, 50 μg/mL gentamycin, 15 mM glucose and 20 mM KCl, with the pH brought to between 7.0 and 7.4 using NaHCO3. Planchettes containing cultures were placed in a CO2— incubator at 37° C. and 100% humidity. Cytosine arabinoside (10-20 μL) was added on the second to third day of cultivation. After 6-7 days of cultivation 1 mg/mL glucose was added to the medium, or the medium was exchanged, depending on the following experiment. The cultured hippocampus neurons were placed in a 0.4 mL working chamber. The working solution had the following composition: 150.0 mM NaCl, 5.0 mM KCl, 2.6 mM CaCl2, 2.0 mM MgSO4×7H2O, 10 mM HEPES, and 15.0 mM Glucose, at pH 7.36.
# Transmembrane currents produced by application of NMDA were registered by the patch clamp electrophysiological method in the whole cell configuration. Application of substances was done by the method of rapid superfusion. Currents were registered with the aid of borosilicate microelectrodes (resistance […]) filled with the following composition: 100.0 mM KCl, 11.0 mM EGTA, 1.0 mM CaCl2, 1.0 mM MgCl2, 10.0 mM HEPES, and 5.0 mM ATP, at pH 7.2. An EPC-9 instrument (HEKA, Germany) was used for registration. Currents were recorded on the hard disk of a Pentium-IV PC using the pulse program, which is also purchased from HEKA. The results were analyzed with the aid of the Pulsefit program (HEKA).
# [3] = test system: patients with schizophrenia, paranoid type; experiment: Double-blind placebo-controlled clinical study, efficacy assessment scales (PANSS, CGI, Calgary, NSA-16); assay type: in vivo, human
# Procedure: (§1) A double-blind, placebo-controlled clinical study was conducted to evaluate the effect of a combination therapy of risperidone (3-[2-[4-(6-fluoro-1,2-benzoxazol-3-yl)piperidin-1-yl]ethyl]-2-methyl-6,7,8,9-tetrahydropyrido[2,1-b]pyrimidin-4-one) plus dimebon (2,8-dimethyl-5-(2-(6-methyl-3-pyridyl)ethyl)-2,3,4,5-tetrahydro-1H-pyrido[4,3-b]indole dihydrochloride) for treatment of chronic schizophrenia compared to risperidone treatment alone. The treatment trial was designed as randomized placebo-controlled, double-blind study of 60 patients meeting diagnostic criteria for schizophrenia, paranoid type, and episodic course (DSM IV-295.30).
# (§2) The study included 60 patients with a diagnosis of continuous paranoid and episodic-progressive schizophrenia with a current condition of drug remission or development of drug remission, without regard to the syndrome determining the current mental status. […] According to DSM-IV, these patients met criteria 295.30, schizophrenia, paranoid type, […]. Patients were selected to participate in the study according to the following criteria: (1) inclusion criteria: male patients, 18 year old or older, schizophrenia, paranoid type, and episodic course in remission or partial remission and responders or partial responders to risperidone; and (2) exclusion criteria: excitement, impulsiveness or aggressive behavior (more than moderate), non-responders to antipsychotic treatment including risperidone, having mental disorders other than (or in addition to) schizophrenia, necessity of other treatment and severe acute somatic diseases or decompensated chronic somatic diseases.
# (§3) In the first stage of the study (2 weeks), patients who provide an informed consent for participation in the study and who met the inclusion/exclusion criteria were switched to monotherapy with risperidone (dose adjustment of risperidone in range from 2 mg to 6 mg per day), and the clinical stability of the patients was evaluated weekly over two weeks. […] Again, clinical stability of the study participants was evaluated weekly for four weeks. In the third stage (8 weeks), after 4 weeks of monotherapy with risperidone, patients were divided into two groups. Group 1 received dimebon, (20 mg three times daily, n=23) in addition to risperidone therapy. Group 2 received a placebo (n=24) in addition to risperidone therapy. Again, clinical stability of the study participants was evaluated weekly for eight weeks. In the fourth stage (follow-up period), 6 months after completion of therapy within the framework of the protocol, the stability of the characteristics achieved in the course of the study were evaluated. In the fourth stage, clinical stability of the study participants was evaluated monthly for six months.
# (§4) The study was conducted as follows. The patients were evaluated clinically and by psychopathological (descriptive) methods during every visit. The patients were evaluated according to the psychometric method at the end of the first period, at the end of the second period, after 4 weeks of the third period and at the end of the third period using the following criteria (A) Efficacy assessment scales such as (1) Positive and Negative Syndrome Scale (PANSS scale; Kay, S. R., Fiszbein, A., and Opler, L. A., Schizophrenia Bulletin 13(2):261-76 (1987)); (2) Clinical Global Impression-Severity (CGI-S) and Clinical Global Impression-Improvement (CGI-I); (3) Calgary depression rating scale (Addington, D., Addington, J., and Maticka-Tyndale E., British J. Psych. Suppl. 22:39-44 (1993)); and (4) Negative Symptoms Assessment-16 (NSA-16) (Alphs, L., Summerfelt, A., Lann, H., and Muller, R. J., Psychopharm. Bull. 25:159-163 (1989)); and (B) Safety scales such as (1) the Barnes Akathisia Rating Scale (BARS) (Barnes, T. R., British J. Psych. 154:672-676 (1989)); and (2) the Simpson-Angus Rating Scale (SARS) (Simpson, G. N. and Angus, J. W. S., Acta Psych. Scand. 212(suppl. 44):11-19 (1970)). […]
# [4] = test system: patients with schizophrenia, paranoid type; experiment: Double-blind placebo-controlled clinical study, neurocognitive assessment tests; assay type: in vivo, human
# Procedure: as §1, §2, §3, §4
# [5] = end (8 weeks dimebon 20 mg three times daily + risperidone)
# [6] = start (before adding dimebon to risperidone)
# [7] = end (8 weeks dimebon + risperidone)
smiles,measurement,setting,value
"Cc1ccc2c(c1)c1c(n2CCc2ccc(C)nc2)CCN(C)C1 [Dimebon, 2,8-dimethyl-5-[2-(6-methylpyridyl-3)ethyl]-2,3,4,5-tetrahydro-1H-pyrido[4,3-b]indole dihydrochloride]",safety issues,"[1]; dimebon 20 mg three times daily + risperidone, 8 weeks",no safety issues
same,"BARS and SARS safety scales, difference between study groups",[1]; dimebon group vs placebo group,no differences
same,Blockade of NMDA-induced currents (%),"[2]; at 10 μM, cultured rat hippocampus neurons",By 50-70% at 10 μM
same,IC50,"[2]; average, read-out: IC50, blocking of currents caused by application of NMDA",7.7 ± 1.9 µM
same,Effect on the blocking effect of MK-801 on NMDA-induced currents,[2],capable of reducing
same,total PANSS score relative to placebo,[3]; adjunctive dimebon on background risperidone therapy,significant reduction
same,% improvement,[3]; [5],8.14 ± 49.4%
same,CGI I,[3]; [5],2.7 ± 1.0
same,CGI-S,[3]; [5],3.9 ± 1.2
same,Calgary scale of depression,[3]; [5],8.1 ± 9.97
same,NSA-16,[3]; [5],48.5 ± 22.7
same,PANSS general psychopathol,[3]; [5],31.4 ± 11.1
same,PANSS negative,[3]; [5],18.48 ± 7.01
same,PANSS positive,[3]; [5],12.0 ± 5.9
same,PANSS total,[3]; [5],61.9 ± 22.2
same,CGI-S,[3]; [6],4.3 ± 1
same,Calgary scale of depression,[3]; [6],11.6 ± 11.6
same,NSA-16,[3]; [6],64.65 ± 22.8
same,PANSS general psychopathol,[3]; [6],39.1 ± 8.1
same,PANSS negative,[3]; [6],22.5 ± 5.15
same,PANSS positive,[3]; [6],16.9 ± 4.6
same,PANSS total,[3]; [6],78.5 ± 14.1
same,"verbal associative memory, psychomotor speed, visual-spatial memory and number aspects of executive functioning","[4]; dimebon group, start to end of 8 weeks on risperidone background",significant improvement
same,Benton test: sum error,[4]; [7],6.5 ± 4.4
same,Benton test: sum reconst,[4]; [7],6 ± 2.21
same,Bourdohn test: attention concentration,[4]; [7],0.986 ± 0.013
same,Bourdohn test: attention productivity,[4]; [7],497 ± 170
same,Bourdohn test: attention stability,[4]; [7],0.009 ± 0.006
same,CAT: correct answer account,[4]; [7],37 ± 8.2
same,CAT: reaction time,[4]; [7],630.17 ± 195.55
same,Schulte tables: sum time,[4]; [7],166 ± 64
same,Text 1 Reconstruction 1. quantity of elements,[4]; [7],7 ± 2.6
same,Text 2 Reconstruction 1 quantity of elements,[4]; [7],9 ± 3.0
same,Tower of London - correct score,[4]; [7],3.26
same,Tower of London - execution time,[4]; [7],234 ± 115
same,Tower of London - sum total time > 60 sec,[4]; [7],0 ± 1.5
same,Tower of London -move score,[4]; [7],34 ± 19
same,"Wechsler memory scale, subtest V: series A",[4]; [7],6 ± 0.9
same,"Wechsler memory scale, subtest V: sum A and B",[4]; [7],9.5 ± 2.7
same,"Wechsler memory scale, subtest V: sum A and B, (T-scores)",[4]; [7],8 ± 2.3
same,"Wechsler memory scale, subtest VII: sum comlex",[4]; [7],4.5 ± 3.34
same,"Wechsler memory scale, subtest VII: sum simple",[4]; [7],17 ± 2.9
same,"Wechsler memory scale, subtestV: series B",[4]; [7],4 ± 0.9
same,"Wechsler test, subtest VII: Symbol coding",[4]; [7],6 ± 1.4
same,"Wisconsin CS test - conceptual level responses, T score",[4]; [7],44 ± 6.7
same,"Wisconsin CS test - nonperseverative errors, T score",[4]; [7],43 ± 9.6
same,"Wisconsin CS test - perseverative responses, T score",[4]; [7],45 ± 5.53
same,Wisconsin CS test - total error - T score,[4]; [7],43 ± 8.1
same,"Wisconsin CS test perseverative errors, T score",[4]; [7],44 ± 5.6
same,Wisconsin CS test: categories completed,[4]; [7],5 ± 1.9
same,Wisconsin CS test: total correct responses,[4]; [7],78 ± 14
same,Benton test: sum error,[4]; [6],8 ± 3.8
same,Benton test: sum reconst,[4]; [6],5 ± 1.7
same,Bourdohn test: attention concentration,[4]; [6],0.975 ± 0.03
same,Bourdohn test: attention productivity,[4]; [6],399 ± 123
same,Bourdohn test: attention stability,[4]; [6],0.01 ± 0.01
same,CAT: correct answer account,[4]; [6],35 ± 8.5
same,CAT: reaction time,[4]; [6],606.74±
same,Schulte tables: sum time,[4]; [6],160 ± 105
same,Text 1 Reconstruction 1. quantity of elements,[4]; [6],5 ± 2.3
same,Text 2 Reconstruction 1 quantity of elements,[4]; [6],7 ± 2.7
same,Tower of London - correct score,[4]; [6],2 ± 1.1
same,Tower of London - execution time,[4]; [6],298 ± 227
same,Tower of London - sum total time > 60 sec,[4]; [6],1.5 ± 3
same,Tower of London -move score,[4]; [6],46 ± 25
same,"Wechsler memory scale, subtest V: series A",[4]; [6],6 ± 1
same,"Wechsler memory scale, subtest V: sum A and B",[4]; [6],10 ± 1.7
same,"Wechsler memory scale, subtest V: sum A and B, (T-scores)",[4]; [6],9 ± 2.3
same,"Wechsler memory scale, subtest VII: sum comlex",[4]; [6],3 ± 2.7
same,"Wechsler memory scale, subtest VII: sum simple",[4]; [6],14 ± 4
same,"Wechsler memory scale, subtestV: series B",[4]; [6],4 ± 1.2
same,"Wechsler test, subtest VII: Symbol coding",[4]; [6],5 ± 1.8
same,"Wisconsin CS test - conceptual level responses, T score",[4]; [6],43 ± 5.9
same,"Wisconsin CS test - nonperseverative errors, T score",[4]; [6],41 ± 7.9
same,"Wisconsin CS test - perseverative responses, T score",[4]; [6],43 ± 8.38
same,Wisconsin CS test - total error - T score,[4]; [6],43 ± 6.8
same,"Wisconsin CS test perseverative errors, T score",[4]; [6],43 ± 8.21
same,Wisconsin CS test: categories completed,[4]; [6],4 ± 1.7
same,Wisconsin CS test: total correct responses,[4]; [6],79 ± 16
"N[C@H](CCCP(=O)(O)O)C(=O)O [D-AP5, D-2-amino-5-phosphonovaleric acid, reference compound]",Effect on the blocking effect of MK-801 on NMDA-induced currents,[2],did not decrease

# Source: patent US20110269777A1, “METHODS AND COMPOSITIONS FOR TREATING SCHIZOPHRENIA USING ANTIPSYCHOTIC COMBINATION THERAPY” (Medivation Neurology, Inc., priority 2007, published 2011)
